# Active and inactive are the calls of the source.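 Rule for the calls: active = half-maximal inhibitory concentration below a set limit; inactive = the rest.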
# Target: E3 ubiquitin-protein ligase SIAH1 (Homo sapiens) (UniProt Q8IUQ4)
# Test: displacement of labeled plectin from Siah-1 – biochemical, fluorescence polarization, fluorescein-plectin, artefact control for Siah-1 antagonist project, dose response (AID 2127)
# Conditions: Siah-1/fluorescein-plectin binding
row,SMILES,IC50
1,NS(=O)(=O)c1ccc(NS(=O)(=O)c2ccc(NC(=O)c3ccc(-c4ccccc4)cc3)cc2)cc1,> 200 µM (inactive)
2,O=C(Nc1cc([N+](=O)[O-])ccc1N1CCOCC1)c1cccs1,> 200 µM (inactive)
3,O=S(=O)(O)c1cc(O)c2c(O)c(N=Nc3cc(Cl)ccc3O)c(S(=O)(=O)O)cc2c1,> 200 µM (inactive)
4,CCOC(=O)/C(C#N)=c1/s/c(=C2\C=Cc3ccccc3N2CC)c(=O)n1CC,> 200 µM (inactive)
5,Oc1ccc(N=Cc2ccc(OCc3ccccc3)cc2)cc1,> 200 µM (inactive)
6,O=C(O)CCCCN1C(=O)/C(=C\c2ccc(OCc3ccccc3)c(OCc3ccccc3)c2)SC1=S,> 200 µM (inactive)
7,O=C1C=C(NCc2ccccc2)c2ccccc2C1=O,> 200 µM (inactive)
8,CC(C)(C)c1ccc(C(CC(=O)O)NC(=O)Cc2ccc(F)cc2)cc1 (stereo not given),> 200 µM (inactive)
9,O=C(CSc1ccc(Br)c2cccc(Cl)c12)Nc1ccc(S(=O)(=O)Nc2nccs2)cc1,> 200 µM (inactive)
10,O=S(=O)(Nc1c(S(=O)(=O)c2ccccc2)c2nc3ccccc3nc2n1C1CCCCC1)c1ccccc1,> 200 µM (inactive)
11,Nc1c(C(=O)NCc2ccco2)c2nc3ccccc3nc2n1Cc1ccccc1,> 200 µM (inactive)
12,CCOc1ccccc1CNc1ccc(O)cc1,> 200 µM (inactive)
13,CC(=O)c1ccc(S(=O)(=O)Nc2ccc(-c3ccc4nnc(C)n4n3)cc2)cc1,> 200 µM (inactive)
14,O=C(Nc1ccc(Oc2ccsc2C(=O)O)cc1)c1ccccc1F,> 200 µM (inactive)
15,CC(=O)Nc1ccc(N=Cc2c(O)c(C(=O)Nc3ccccc3)cc3ccccc23)cc1,4.98 µM
16,Cc1cc(C)n(-c2ccc(Cl)c(C(=O)Nc3cc(C(F)(F)F)ccc3Cl)n2)n1,> 200 µM (inactive)
17,Cc1coc2c(C)c3oc(=O)c(CCC(=O)N[C@@H](C)C(=O)N[C@@H](Cc4ccccc4)C(=O)O)c(C)c3cc12,> 200 µM (inactive)
18,C=CCc1cccc2cc(C(=O)Nc3ccc(CC(=O)O)cc3)c(=O)oc12,> 200 µM (inactive)
19,COc1ccc(CCNC(=O)c2ccc(S(=O)(=O)N(C)c3ccccc3)cc2)cc1OC,> 200 µM (inactive)
20,CCc1nnc(NS(=O)(=O)c2ccc(NC(=S)NC(=O)/C=C/c3ccc(C(C)C)cc3)cc2)s1,> 200 µM (inactive)
21,COc1ccc(CNC(=S)Nc2cc(OC)ccc2OC)cc1,> 200 µM (inactive)
22,COC(=O)c1cccc(Cn2c(Cl)c(/C=N/NC(=O)c3ccccc3Cl)sc2=O)c1,> 200 µM (inactive)
23,COCCOC(=O)c1sc(=S)n(CCOC)c1N,15.3 µM
24,N#Cc1c(NC(=O)c2ccc(Br)o2)n(-c2ccccc2)c2nc3ccccc3nc12,> 200 µM (inactive)
25,CCC1=Nc2cc(C(=O)O)ccc2Sc2ccccc21,> 200 µM (inactive)
26,CN(C)CCOC(=O)CCc1ccccc1,> 200 µM (inactive)
27,CN1C(=O)NC(c2ccccc2[N+](=O)[O-])C2=C1CCCC2=O (stereo not given),5.41 µM

row,SMILES,IC50
1,CCCCn1c(NS(=O)(=O)c2ccc(C)cc2)c(S(=O)(=O)c2ccccc2)c2nc3ccccc3nc21,> 200 µM (inactive)
2,Nc1c(C(=O)NCc2ccco2)c2nc3ccccc3nc2n1CCc1ccccc1,> 200 µM (inactive)
3,CCN(CC)c1ccc(/C=c2\sc3nnc(-c4ccccc4Cl)n3c2=O)cc1,> 200 µM (inactive)
4,S=c1[nH]nc(Cc2cccc3ccccc23)n1-c1ccccc1,> 200 µM (inactive)
5,O=C(Nc1ccc(Cl)cc1)c1ccc(S(=O)(=O)N2CCOCC2)cc1,> 200 µM (inactive)
6,O=S(=O)(Nc1nc2ccccc2nc1Nc1ccc(N2CCOCC2)cc1)c1cc(Cl)ccc1Cl,> 200 µM (inactive)
7,Oc1c(Br)cc(Br)cc1CNc1ccc(F)cc1,> 200 µM (inactive)
8,N#C/C(=C\c1c(F)cccc1Cl)C(=O)NC1CC1,> 200 µM (inactive)
9,CCCCn1c(NC(=O)c2ccc(Br)o2)c(C(=O)OCC)c2nc3ccccc3nc21,> 200 µM (inactive)
10,CCN(CC)CCOC(=O)c1ccc(N/C=C(/C#N)c2nc(-c3cc4ccccc4oc3=O)cs2)cc1,> 200 µM (inactive)
11,CCN(CC)CCOC(=O)c1ccc(N/C=C(/C#N)c2nc(-c3ccc(OC)c(OC)c3)cs2)cc1,> 200 µM (inactive)
12,O=C(Nc1cccc(Oc2ccc(C(=O)O)c(C(=O)O)c2)c1)c1ccc(-c2ccccc2)cc1,> 200 µM (inactive)
13,COc1cc(CNc2ccc(O)cc2)cc(Br)c1OCc1ccccc1F,> 200 µM (inactive)
14,CC(NC(=O)Nc1ccc(O)cc1)(C(F)(F)F)C(F)(F)F,> 200 µM (inactive)
15,O=C(Nc1ccccc1N1CCCCC1)c1ccc(-c2cccc(Cl)c2)o1,> 200 µM (inactive)
16,COc1ccc(N=C2NC(=O)S/C2=C\c2ccc(N(C)C)cc2)cc1,inactive
17,COc1cc(NS(=O)(=O)c2ccc(NC(=S)NC(=O)/C=C/c3ccc(F)cc3)cc2)ncn1,> 200 µM (inactive)
18,Cc1cc(Cl)ccc1NC(=O)CN1CCC(C(O)(c2ccccc2)c2ccccc2)CC1,> 200 µM (inactive)
19,CCN(CC)c1ccc(C=N/C(C#N)=C(\N)C#N)cc1,> 200 µM (inactive)
20,C[C@]12CCC3C(CC=C4C[C@@H](O)CC[C@@]43C)C1CCC2[C@]1(C)CCC(=O)O1 (stereo not given in full),> 200 µM (inactive)
21,Cc1cc(C)n2ncc(C(=O)Nc3ccc4c(c3)OCO4)c2n1,> 200 µM (inactive)
22,CSc1ccccc1C(=O)NC(C)c1ccc(-n2ccnc2)cc1 (stereo not given),> 200 µM (inactive)
23,O=C(NCc1c(F)cccc1F)c1cc(COc2c(F)cccc2F)on1,> 200 µM (inactive)
24,Cc1ccc(C(=O)NC2CC3CCCC(C2)N3C(=O)NC2CCCCC2)cc1 (stereo not given),> 200 µM (inactive)
25,O=C(/C=C/c1ccco1)OCc1nnc(-c2ccccc2)o1,> 200 µM (inactive)
26,Cc1cc(C)nc(N=Nc2c(O)n(Cc3ccc(Cl)cc3)c3ccccc23)n1,> 200 µM (inactive)
27,Cc1ccc(S(=O)(=O)NN=C2C3CC4CC(C3)CC2C4)cc1[N+](=O)[O-],> 200 µM (inactive)

row,SMILES,IC50
1,Cc1ccc(OCCCN2CCOCC2)cc1,> 200 µM (inactive)
2,O=C(CCn1ccc2ccccc21)NC1CCCc2ccccc21 (stereo not given),> 200 µM (inactive)
3,O=C(O)CCCNc1cc(N2CCN(C(=O)c3ccco3)CC2)c2noc3c2c1C(=O)c1ccccc1-3,10.9 µM
4,O=C(Cn1cnc2scc(-c3ccccc3)c2c1=O)NCc1ccco1,> 200 µM (inactive)
5,CC1CCN(S(=O)(=O)c2ccc3c(c2)c(=O)c(C(=O)NCc2ccccc2Cl)cn3C)CC1,> 200 µM (inactive)
6,CCC(C)[C@H](NC(=O)N1CCn2c1nc1ccccc12)C(=O)NCCc1ccc(OC)c(OC)c1 (stereo not given in full),> 200 µM (inactive)
7,CC[n+]1c(/C=C/N(C)c2ccccc2)sc2ccc(Cl)cc21,> 200 µM (inactive)
8,COc1cc(/C=C(\C#N)c2nc3ccccc3[nH]2)ccc1OC(=O)c1ccco1,> 200 µM (inactive)
9,c1ccc(C(c2ccccc2)N2CCN(C(c3ccccn3)c3nnnn3C3CCCC3)CC2)cc1 (stereo not given),> 200 µM (inactive)
10,Oc1ccc(N=Cc2sc3ccccc3c2Cl)cc1,> 200 µM (inactive)
11,C=C(C)Cn1c(N2CCN(CC)CC2)nc2c1c(=O)[nH]c(=O)n2C,> 200 µM (inactive)
12,O=c1[nH]c2ccc(S(=O)(=O)N3CCCCC3)cc2s1,> 200 µM (inactive)
13,CC1=CC(C)(C)N2C(=O)C(=Nc3ccc(O)cc3)c3cccc1c32,> 200 µM (inactive)
14,CN(Cc1c(C(=O)N/N=C/c2ccc(F)cc2)nnn1-c1nonc1N)C1CCCCC1,> 200 µM (inactive)
15,O=S(=O)(Nc1cc2nc3ccccc3nc2n1Cc1ccccc1)c1ccc(Cl)cc1,> 200 µM (inactive)
16,CCOC(=O)C1=C(C)N=c2s/c(=C\c3ccc(OCC(=O)O)cc3)c(=O)n2C1c1ccc(Cl)cc1 (stereo not given),> 200 µM (inactive)
17,CC(C)(C)c1cc(-c2csc(Nc3ccccc3)[n+]2Cc2ccc(C(=O)O)cc2)cc(C(C)(C)C)c1O,> 200 µM (inactive)
18,COC/C=C/C1=CC2=CC(=O)C(C)(OC(=O)c3ccco3)C(=O)C2=CO1 (stereo not given),> 200 µM (inactive)
19,COC(=O)c1c(C(=O)OC)c2cccc3cc(-c4ccccc4)c4ccc1c4n32,inactive
20,O=C(N/N=C/c1cccc(Br)c1)c1ccc(Br)cc1,> 200 µM (inactive)
21,CCOc1cc(/C=C(\C#N)C(=O)Nc2ccccc2C(=O)O)ccc1OC(=O)c1ccc(C)cc1,> 200 µM (inactive)
22,CC1(C)Cc2c(sc(/N=C/N3CCCCCC3)c2C#N)C(C)(C)N1,> 200 µM (inactive)
23,CS(=O)(=O)N1CCN(c2ccc([N+](=O)[O-])c(SCc3ccco3)c2)CC1,> 200 µM (inactive)
24,CSc1n[nH]c(NCc2ccc(Cl)cc2)n1,> 200 µM (inactive)
25,Cc1cc2cc(CNC(=O)c3ccc(S(=O)(=O)N4CCCCC4)cc3)ccc2n1C,inactive
26,CCCCN(Cc1cc2cc(OC)ccc2[nH]c1=O)S(=O)(=O)c1ccc(C)cc1,> 200 µM (inactive)

# — PubChem BioAssay AID2127 (Sanford-Burnham Center for Chemical Genomics, 2009)
